Results taken from patent publication US10487068B2, “Pyridazine derivatives as RORc modulators” (Genentech, Inc., priority 2015, dated 2019).

Target: T1, RORc ligand binding domain (Homo sapiens, UniProt P51449)
T1 sequence (P51449 269-508 limits assumed): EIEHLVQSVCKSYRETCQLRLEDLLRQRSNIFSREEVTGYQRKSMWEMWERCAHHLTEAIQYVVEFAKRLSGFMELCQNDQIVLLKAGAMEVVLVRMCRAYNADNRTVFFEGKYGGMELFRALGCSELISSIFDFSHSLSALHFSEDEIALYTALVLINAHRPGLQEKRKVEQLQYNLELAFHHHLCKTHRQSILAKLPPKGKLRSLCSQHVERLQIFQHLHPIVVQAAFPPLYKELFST
Experiment: In Vitro RORc Ligand Binding Assay
Details: RORc IC50, radioligand 25-[3H]hydroxycholesterol 6 nM; 0.6 ug/mL RORc receptor; 3 h at 25° C.

| SMILES | IC50 [µM] |
| --- | --- |
| CC1(C)[C@H]2CC[C@]1(c1cncc(C(=O)NC3COC3)n1)c1nnc(-c3c(F)cccc3F)cc12 [Example 29, 6-((5R,8S)-3-(2,6-difluorophenyl)-9,9-dimethyl-5,6,7,8-tetrahydro-5,8-methanocinnolin-8-yl)-N-(oxetan-3-yl)pyrazine-2-carboxamide] | 0.0431 |
| CC(=O)Nc1cncc([C@@]23CC[C@@H](c4cc(-c5c(F)cccc5F)nnc42)C3(C)C)n1 [Example 32, N-(6-((5R,8S)-3-(2,6-difluorophenyl)-9,9-dimethyl-5,6,7,8-tetrahydro-5,8-methanocinnolin-8-yl)pyrazin-2-yl)acetamide] | 0.022 |
| CC1(C)[C@H]2CC[C@]1(c1cncc(N)n1)c1nnc(-c3c(F)cccc3F)cc12 [Example 33, 6-((5R,8S)-3-(2,6-difluorophenyl)-9,9-dimethyl-5,6,7,8-tetrahydro-5,8-methanocinnolin-8-yl)pyrazin-2-amine] | 0.022 |
| CC1(C)[C@H]2CC[C@]1(c1cncc(NS(C)(=O)=O)n1)c1nnc(-c3c(F)cccc3F)cc12 [Example 34, N-(6-((5R,8S)-3-(2,6-difluorophenyl)-9,9-dimethyl-5,6,7,8-tetrahydro-5,8-methanocinnolin-8-yl)pyrazin-2-yl)methanesulfonamide] | 0.0759 |
| Cc1nnc(-c2cncc([C@@]34CC[C@@H](c5cc(-c6c(F)cccc6F)nnc53)C4(C)C)n2)o1 [Example 35, 2-(6-((5R,8S)-3-(2,6-difluorophenyl)-9,9-dimethyl-5,6,7,8-tetrahydro-5,8-methanocinnolin-8-yl)pyrazin-2-yl)-5-methyl-1,3,4-oxadiazole] | 0.0217 |
| COCCNC(=O)c1cncc([C@@]23CC[C@@H](c4cc(-c5c(F)cccc5F)nnc42)C3(C)C)n1 [Example 36, 6-((5R,8S)-3-(2,6-difluorophenyl)-9,9-dimethyl-5,6,7,8-tetrahydro-5,8-methanocinnolin-8-yl)-N-(2-methoxyethyl)pyrazine-2-carboxamide] | 0.0371 |
| CC1(C)[C@H]2CC[C@]1(c1cncc(C(=O)NCCO)n1)c1nnc(-c3c(F)cccc3F)cc12 [Example 41, 6-((5R,8S)-3-(2,6-difluorophenyl)-9,9-dimethyl-5,6,7,8-tetrahydro-5,8-methanocinnolin-8-yl)-N-(2-hydroxyethyl)pyrazine-2-carboxamide] | 0.0256 |
| CC1(C)[C@H]2CC[C@]1(c1cc(C#N)ccn1)c1nnc(-c3c(F)cccc3F)cc12 [Example 42] | 0.0121 |
| CC1(C)[C@H]2CC[C@]1(c1nccc(C#N)n1)c1nnc(-c3c(F)cccc3F)cc12 [Example 43, 2-((5R,8R)-3-(2,6-difluorophenyl)-9,9-dimethyl-5,6,7,8-tetrahydro-5,8-methanocinnolin-8-yl)pyrimidine-4-carbonitrile] | 0.027 |
| C[C@@H](O)CNC(=O)c1cncc([C@@]23CC[C@@H](c4cc(-c5c(F)cccc5F)nnc42)C3(C)C)n1 [Example 49, 6-((5R,8S)-3-(2,6-difluorophenyl)-9,9-dimethyl-5,6,7,8-tetrahydro-5,8-methanocinnolin-8-yl)-N-((R)-2-hydroxypropyl)pyrazine-2-carboxamide] | 0.0409 |
| C[C@H](O)CNC(=O)c1cncc([C@@]23CC[C@@H](c4cc(-c5c(F)cccc5F)nnc42)C3(C)C)n1 [Example 50, 6-((5R,8S)-3-(2,6-difluorophenyl)-9,9-dimethyl-5,6,7,8-tetrahydro-5,8-methanocinnolin-8-yl)-N-((S)-2-hydroxypropyl)pyrazine-2-carboxamide] | 0.0317 |
| C[C@H](CO)NC(=O)c1cncc([C@@]23CC[C@@H](c4cc(-c5c(F)cccc5F)nnc42)C3(C)C)n1 [Example 51, 6-((5R,8S)-3-(2,6-difluorophenyl)-9,9-dimethyl-5,6,7,8-tetrahydro-5,8-methanocinnolin-8-yl)-N-((R)-1-hydroxypropan-2-yl)pyrazine-2-carboxamide] | 0.059 |
| C[C@@H](CO)NC(=O)c1cncc([C@@]23CC[C@@H](c4cc(-c5c(F)cccc5F)nnc42)C3(C)C)n1 [Example 52, 6-((5R,8S)-3-(2,6-difluorophenyl)-9,9-dimethyl-5,6,7,8-tetrahydro-5,8-methanocinnolin-8-yl)-N-((S)-1-hydroxypropan-2-yl)pyrazine-2-carboxamide] | 0.038 |

Second part, the compound after the results:

| IC50 [µM] | SMILES |
| --- | --- |
| 0.0417 | CN(C)C(=O)c1cncc([C@@]23CC[C@@H](c4cc(-c5c(F)cccc5F)nnc42)C3(C)C)n1 [Example 28, 6-((5R,8S)-3-(2,6-difluorophenyl)-9,9-dimethyl-5,6,7,8-tetrahydro-5,8-methanocinnolin-8-yl)-N,N-dimethylpyrazine-2-carboxamide] |
| 0.146 | CC1(C)[C@H]2CC[C@]1(c1cncc(C(=O)N3CC(C#N)C3)n1)c1nnc(-c3c(F)cccc3F)cc12 [Example 30, 1-(6-((5R,8S)-3-(2,6-difluorophenyl)-9,9-dimethyl-5,6,7,8-tetrahydro-5,8-methanocinnolin-8-yl)pyrazine-2-carbonyl)azetidine-3-carbonitrile] |
| 0.0933 | CC1(C)[C@H]2CC[C@]1(c1cncc(C(=O)N3CC(CO)C3)n1)c1nnc(-c3c(F)cccc3F)cc12 [Example 31, (6-((5R,8S)-3-(2,6-difluorophenyl)-9,9-dimethyl-5,6,7,8-tetrahydro-5,8-methanocinnolin-8-yl)pyrazin-2-yl)(3-(hydroxymethyl)azetidin-1-yl)methanone] |
| 0.0482 | CC1(C)[C@H]2CC[C@]1(c1cccc(C(=O)N3CCOCC3)n1)c1nnc(-c3c(F)cccc3F)cc12 [Example 37, (6-((5R,8S)-3-(2,6-difluorophenyl)-9,9-dimethyl-5,6,7,8-tetrahydro-5,8-methanocinnolin-8-yl)pyridin-2-yl)(morpholino)methanone] |
| 0.0377 | CN(CCO)C(=O)c1cccc([C@@]23CC[C@@H](c4cc(-c5c(F)cccc5F)nnc42)C3(C)C)n1 [Example 38, 6-((5R,8S)-3-(2,6-difluorophenyl)-9,9-dimethyl-5,6,7,8-tetrahydro-5,8-methanocinnolin-8-yl)-N-(2-hydroxyethyl)-N-methylpicolinamide] |
| 0.0116 | COCCNC(=O)c1cccc([C@@]23CC[C@@H](c4cc(-c5c(F)cccc5F)nnc42)C3(C)C)n1 [Example 39, 6-((5R,8S)-3-(2,6-difluorophenyl)-9,9-dimethyl-5,6,7,8-tetrahydro-5,8-methanocinnolin-8-yl)-N-(2-methoxyethyl)picolinamide] |
| 0.0099 | CC1(NC(=O)c2cccc([C@@]34CC[C@@H](c5cc(-c6c(F)cccc6F)nnc53)C4(C)C)n2)CC1 [Example 40, 6-((5R,8S)-3-(2,6-difluorophenyl)-9,9-dimethyl-5,6,7,8-tetrahydro-5,8-methanocinnolin-8-yl)-N-(1-methylcyclopropyl)picolinamide] |
| 0.0149 | CONC(=O)c1cccc([C@@]23CC[C@@H](c4cc(-c5c(F)cccc5F)nnc42)C3(C)C)n1 [Example 44, 6-((5R,8S)-3-(2,6-difluorophenyl)-9,9-dimethyl-5,6,7,8-tetrahydro-5,8-methanocinnolin-8-yl)-N-methoxypicolinamide] |
| 0.00866 | CC1(C)[C@H]2CC[C@]1(c1cccc(C(N)=O)n1)c1nnc(-c3c(F)cccc3F)cc12 [Example 45, 6-((5R,8S)-3-(2,6-difluorophenyl)-9,9-dimethyl-5,6,7,8-tetrahydro-5,8-methanocinnolin-8-yl)picolinamide] |
| 0.0432 | CC1(C)[C@H]2CC[C@]1(c1nccc(C(N)=O)n1)c1nnc(-c3c(F)cccc3F)cc12 [Example 46, 2-((5R,8R)-3-(2,6-difluorophenyl)-9,9-dimethyl-5,6,7,8-tetrahydro-5,8-methanocinnolin-8-yl)pyrimidine-4-carboxamide] |
| 0.0583 | CNC(=O)c1ccnc([C@@]23CC[C@@H](c4cc(-c5c(F)cccc5F)nnc42)C3(C)C)n1 [Example 47, 2-((5R,8R)-3-(2,6-difluorophenyl)-9,9-dimethyl-5,6,7,8-tetrahydro-5,8-methanocinnolin-8-yl)-N-methylpyrimidine-4-carboxamide] |
| 0.0156 | CC1(C)[C@@H]2CC[C@@]1(c1cccc(C(N)=O)n1)c1nnc(-c3c(F)cccc3F)cc12 [Example 48, 6-((5S,8R)-3-(2,6-difluorophenyl)-9,9-dimethyl-5,6,7,8-tetrahydro-5,8-methanocinnolin-8-yl)picolinamide] |
| 0.475 | CC1(C)[C@H]2CC[C@]1(c1cc(C(=O)O)ccn1)c1nnc(-c3c(F)cccc3F)cc12 [Example 53] |
| 0.0295 | C[C@H](CO)NC(=O)c1cccc([C@@]23CC[C@@H](c4cc(-c5c(F)cccc5F)nnc42)C3(C)C)n1 [Example 54, 6-((5R,8S)-3-(2,6-difluorophenyl)-9,9-dimethyl-5,6,7,8-tetrahydro-5,8-methanocinnolin-8-yl)-N-((R)-1-hydroxypropan-2-yl)picolinamide] |
| 0.0214 | C[C@@H](CO)NC(=O)c1cccc([C@@]23CC[C@@H](c4cc(-c5c(F)cccc5F)nnc42)C3(C)C)n1 [Example 55, 6-((5R,8S)-3-(2,6-difluorophenyl)-9,9-dimethyl-5,6,7,8-tetrahydro-5,8-methanocinnolin-8-yl)-N-((S)-1-hydroxypropan-2-yl)picolinamide] |
| 0.0355 | CC1(C)[C@H]2CC[C@]1(c1cccc(C(=O)NCCO)n1)c1nnc(-c3c(F)cccc3F)cc12 [Example 56, 6-((5R,8S)-3-(2,6-difluorophenyl)-9,9-dimethyl-5,6,7,8-tetrahydro-5,8-methanocinnolin-8-yl)-N-(2-hydroxyethyl)picolinamide] |
| 0.0711 | CC1(C)[C@H]2CC[C@]1(c1cccc(C(=O)N3CCS(=O)(=O)CC3)n1)c1nnc(-c3c(F)cccc3F)cc12 [Example 57, (6-((5R,8S)-3-(2,6-difluorophenyl)-9,9-dimethyl-5,6,7,8-tetrahydro-5,8-methanocinnolin-8-yl)pyridin-2-yl)(1,1-dioxidothiomorpholino)methanone] |
